Holding throughout (assay type): cell-based
Experiment [1] has as its target T1, human TLR7 (Homo sapiens, UniProt Q9NYK1).
T1 construct: host or cells: HEK-Blue cells
T1 sequence (Q9NYK1 27-1049): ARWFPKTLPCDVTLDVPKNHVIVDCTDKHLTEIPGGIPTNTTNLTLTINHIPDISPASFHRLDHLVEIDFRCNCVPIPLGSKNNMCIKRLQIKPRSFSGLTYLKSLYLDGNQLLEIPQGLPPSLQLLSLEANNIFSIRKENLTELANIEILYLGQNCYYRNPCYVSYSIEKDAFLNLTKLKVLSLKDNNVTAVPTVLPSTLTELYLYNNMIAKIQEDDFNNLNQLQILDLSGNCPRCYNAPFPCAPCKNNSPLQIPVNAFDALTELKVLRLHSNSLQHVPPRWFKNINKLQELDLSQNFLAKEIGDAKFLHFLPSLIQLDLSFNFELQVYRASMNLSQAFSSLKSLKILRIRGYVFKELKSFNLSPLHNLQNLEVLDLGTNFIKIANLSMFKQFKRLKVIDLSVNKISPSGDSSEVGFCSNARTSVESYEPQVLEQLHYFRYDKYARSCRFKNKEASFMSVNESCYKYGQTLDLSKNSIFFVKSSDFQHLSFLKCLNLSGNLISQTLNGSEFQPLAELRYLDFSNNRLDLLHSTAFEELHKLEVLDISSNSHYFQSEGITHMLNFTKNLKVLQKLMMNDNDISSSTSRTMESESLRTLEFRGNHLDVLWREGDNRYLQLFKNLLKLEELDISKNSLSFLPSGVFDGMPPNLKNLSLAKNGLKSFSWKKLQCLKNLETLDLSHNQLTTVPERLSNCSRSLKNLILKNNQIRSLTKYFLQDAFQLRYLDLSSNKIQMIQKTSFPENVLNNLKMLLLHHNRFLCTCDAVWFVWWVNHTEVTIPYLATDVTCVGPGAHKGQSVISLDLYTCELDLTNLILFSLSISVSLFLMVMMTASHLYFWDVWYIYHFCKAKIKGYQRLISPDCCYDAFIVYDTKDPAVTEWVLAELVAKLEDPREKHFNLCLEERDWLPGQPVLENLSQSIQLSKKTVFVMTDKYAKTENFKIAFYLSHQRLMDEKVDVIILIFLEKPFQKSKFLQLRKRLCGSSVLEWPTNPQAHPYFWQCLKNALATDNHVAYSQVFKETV
Description: TLR7 inhibition reporter assay (HEK-Blue, SEAP). The note with it: HEK-Blue cells overexpressing human TLR7, gardiquimod 7.5 μM, 22 hour incubation. The method, boiled down: (§1)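 Compound treatment: 30 min, RT, 0.05 nM–50 μM final. Agonist: TLR7 gardiquimod 7.5 μM; TLR8 R848 15.9 μM; TLR9 ODN2006 5 nM. Incubation 22 h, 37 °C, 5% CO2. Readout SEAP, HEK-Blue Detection.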

In experiment [2] the target is T2, human TLR9 (Homo sapiens, UniProt Q9NR96).
T2 construct: host or cells: HEK-Blue cells
T2 sequence (Q9NR96 26-1032): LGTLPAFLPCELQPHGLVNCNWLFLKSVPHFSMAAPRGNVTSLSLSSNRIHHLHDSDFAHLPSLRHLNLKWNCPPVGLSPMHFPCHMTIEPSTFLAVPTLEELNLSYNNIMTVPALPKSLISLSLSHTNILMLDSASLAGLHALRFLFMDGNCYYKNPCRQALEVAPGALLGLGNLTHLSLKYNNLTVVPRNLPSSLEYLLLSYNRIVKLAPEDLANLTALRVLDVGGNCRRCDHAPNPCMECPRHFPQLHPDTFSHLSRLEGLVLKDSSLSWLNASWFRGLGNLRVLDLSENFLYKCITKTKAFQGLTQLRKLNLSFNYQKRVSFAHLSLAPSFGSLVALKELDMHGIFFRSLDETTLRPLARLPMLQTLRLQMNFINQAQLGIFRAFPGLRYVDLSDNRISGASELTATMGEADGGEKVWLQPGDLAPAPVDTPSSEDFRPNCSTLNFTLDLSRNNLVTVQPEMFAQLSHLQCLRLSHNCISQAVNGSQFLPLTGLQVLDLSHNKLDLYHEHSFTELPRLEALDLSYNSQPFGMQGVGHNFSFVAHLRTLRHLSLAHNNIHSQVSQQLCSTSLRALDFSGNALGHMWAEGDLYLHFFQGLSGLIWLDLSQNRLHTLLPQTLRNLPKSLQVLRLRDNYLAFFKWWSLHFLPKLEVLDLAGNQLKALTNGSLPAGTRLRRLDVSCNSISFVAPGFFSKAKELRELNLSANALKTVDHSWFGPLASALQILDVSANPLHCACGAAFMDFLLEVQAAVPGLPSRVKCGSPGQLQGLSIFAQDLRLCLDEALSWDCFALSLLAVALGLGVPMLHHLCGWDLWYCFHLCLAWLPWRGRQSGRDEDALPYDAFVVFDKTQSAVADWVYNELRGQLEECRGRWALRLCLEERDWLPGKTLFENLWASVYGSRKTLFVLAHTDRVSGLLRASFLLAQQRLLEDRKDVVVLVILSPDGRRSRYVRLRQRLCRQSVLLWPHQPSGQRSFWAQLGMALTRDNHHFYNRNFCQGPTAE
Description: TLR9 inhibition reporter assay (HEK-Blue, SEAP). To be noted: HEK-Blue cells overexpressing human TLR9, ODN2006 5 nM, 22 hour incubation. The method, boiled down:
as §1

Experiment [3] deals with T3, human TLR8 (Homo sapiens, UniProt Q9NR97).
T3 construct: host or cells: HEK-Blue cells
T3 sequence (Q9NR97 27-1041): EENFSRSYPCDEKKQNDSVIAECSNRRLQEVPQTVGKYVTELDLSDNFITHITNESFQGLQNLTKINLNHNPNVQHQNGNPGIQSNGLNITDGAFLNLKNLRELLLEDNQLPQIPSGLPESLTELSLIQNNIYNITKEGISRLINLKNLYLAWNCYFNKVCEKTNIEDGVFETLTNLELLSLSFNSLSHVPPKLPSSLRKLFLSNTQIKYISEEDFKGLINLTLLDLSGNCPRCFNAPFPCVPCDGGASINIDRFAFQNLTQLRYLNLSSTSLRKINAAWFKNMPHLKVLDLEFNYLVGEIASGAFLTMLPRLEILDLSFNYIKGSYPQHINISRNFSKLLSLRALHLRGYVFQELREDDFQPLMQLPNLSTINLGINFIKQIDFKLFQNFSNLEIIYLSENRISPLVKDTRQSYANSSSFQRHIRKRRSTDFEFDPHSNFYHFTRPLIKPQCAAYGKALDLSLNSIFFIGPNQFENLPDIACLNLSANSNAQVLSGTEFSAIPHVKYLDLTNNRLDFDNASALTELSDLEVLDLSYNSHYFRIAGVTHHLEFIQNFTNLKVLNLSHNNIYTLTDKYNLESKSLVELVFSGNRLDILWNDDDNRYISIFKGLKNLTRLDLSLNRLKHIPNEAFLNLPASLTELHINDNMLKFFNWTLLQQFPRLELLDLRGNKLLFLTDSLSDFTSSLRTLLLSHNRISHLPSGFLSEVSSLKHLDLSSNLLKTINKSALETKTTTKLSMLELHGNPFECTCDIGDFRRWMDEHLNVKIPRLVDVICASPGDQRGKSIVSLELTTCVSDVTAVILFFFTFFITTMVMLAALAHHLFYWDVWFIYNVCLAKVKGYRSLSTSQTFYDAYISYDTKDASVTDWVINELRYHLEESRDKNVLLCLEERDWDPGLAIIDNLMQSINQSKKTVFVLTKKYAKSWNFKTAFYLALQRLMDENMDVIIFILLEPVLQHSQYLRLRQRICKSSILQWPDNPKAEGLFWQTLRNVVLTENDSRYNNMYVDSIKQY
Description: TLR8 inhibition reporter assay (HEK-Blue, SEAP). The note with it: HEK-Blue cells overexpressing human TLR8, R848 15.9 μM, 22 hour incubation. The essentials:
as §1
A general note: In a reporter assay the amount or activity of a reporter protein is the signal.

The values that follow come from patent publication US11130756B2, “[1,2,4]Triazolo[4,3-A]pyridinyl substituted indole compounds” (BRISTOL-MYERS SQUIBB COMPANY, priority 2017, dated 2021).

pIC50: −log10 of the molar value.

For `Cc1c(-c2[nH]c3ccc(C4CCN(CCN5CCOC5=O)CC4)cc3c2C(C)C)cn2cnnc2c1C` [Example 56, 3-(2-(4-(2-(7,8-dimethyl-[1,2,4]triazolo[4,3-a]pyridin-6-yl)-3-isopropyl-1H-indol-5-yl)piperidin-1-yl)ethyl)oxazolidin-2-one], the negative-log IC50 (pIC50) in experiment [1] is 9.30; in experiment [2] it was 6.71; in experiment [3] it was 8.10.
On to `Cc1c(-c2[nH]c3ccc(C4CCN(CCN5CCCC5=O)CC4)cc3c2C(C)C)cn2cnnc2c1C` [Example 57, 1-(2-(4-(2-(7,8-dimethyl-[1,2,4]triazolo[4,3-a]pyridin-6-yl)-3-isopropyl-1H-indol-5-yl)piperidin-1-yl)ethyl) pyrrolidin-2-one], for which the pIC50 in experiment [1] was 8.30; in experiment [2], 5.88; in experiment [3] it was 7.89.
Regarding `Cc1cc(-c2[nH]c3ccc(C4CCN(CC(C)(C)O)CC4)cc3c2C(C)C)cn2cnnc12` [Example 58, 1-(4-(3-isopropyl-2-(8-methyl-[1,2,4]triazolo[4,3-a]pyridin-6-yl)-1H-indol-5-yl)piperidin-1-yl)-2-methylpropan-2-ol], the values for the pIC50 in experiment [1], in experiment [2] and in experiment [3] were 9.10, 5.76 and 9.05, respectively.
The corresponding values for `Cc1cc(-c2[nH]c3ccc(C4CCN(CC(C)(C)O)CC4)cc3c2C(C)C)c(C)n2cnnc12` [Example 59, 1-(4-(2-(5,8-dimethyl-[1,2,4]triazolo[4,3-a]pyridin-6-yl)-3-isopropyl-1H-indol-5-yl)piperidin-1-yl)-2-methylpropan-2-ol] are 7.09, 5.46 and 8.51.
As to `Cc1c(-c2[nH]c3ccc(C4CCN(CC(C)(C)O)CC4)cc3c2C(C)C)cn2cnnc2c1C` [Example 60, 1-(4-(2-(7,8-dimethyl-[1,2,4]triazolo[4,3-a]pyridin-6-yl)-3-isopropyl-1H-indol-5-yl)piperidin-1-yl)-2-methylpropan-2-ol], the figures for the pIC50 in experiment [1], in experiment [2] and in experiment [3] were 8.77, 5.54 and 8.37, respectively.
For `Cc1c(-c2[nH]c3ccc(C4CCN(CC(C)(C)O)CC4)cc3c2C(C)C)cn2cnnc2c1Cl` [Example 61, 1-(4-(2-(8-chloro-7-methyl-[1,2,4]triazolo [4,3-a]pyridin-6-yl)-3-isopropyl-1H-indol-5-yl)piperidin-1-yl)-2-methylpropan-2-ol], in that order: 9.05, 5.64 and 8.34.
Turning to `Cc1cc(-c2[nH]c3ccc(C4CCN(C5COC5)CC4)cc3c2C(C)C)cn2cnnc12` [Example 63, 6-(3-isopropyl-5-(1-(oxetan-3-yl)piperidin-4-yl)-1H-indol-2-yl)-8-methyl-[1,2,4]triazolo[4,3-a]pyridine], the values for the pIC50 in experiment [1], in experiment [2] and in experiment [3] were 8.77, 4.96 and 8.12, respectively.
For `CC(C)c1c(-c2ccc3nncn3c2)[nH]c2ccc(C3CCN(C4CCOCC4)CC3)cc12` [Example 64, 6-(3-isopropyl-5-(1-(tetrahydro-2H-pyran-4-yl)piperidin-4-yl)-1H-indol-2-yl)-[1,2,4]triazolo[4,3-a]pyridine], in that order: 7.61, 6.17 and 6.83.
For `CC(C)c1c(-c2ccc3nncn3c2)[nH]c2ccc(C3CCN(C4COC4)CC3)cc12` [Example 65, 6-(3-isopropyl-5-(1-(oxetan-3-yl)piperidin-4-yl)-1H-indol-2-yl)-[1,2,4]triazolo[4,3-a]pyridine], in that order: 7.66, 4.82 and 6.47.
The corresponding values for `Cc1cc2nncn2cc1-c1[nH]c2ccc(C3CCN(C4COC4)CC3)cc2c1C(C)C` [Example 66, 6-(3-isopropyl-5-(1-(oxetan-3-yl)piperidin-4-yl)-1H-indol-2-yl)-7-methyl-[1,2,4]triazolo[4,3-a]pyridine] are 7.26, 4.73 and 5.99.
Consider `Cc1nnc2ccc(-c3[nH]c4ccc(C5CCN(C6COC6)CC5)cc4c3C(C)C)cn12` [Example 67, 6-(3-isopropyl-5-(1-(oxetan-3-yl)piperidin-4-yl)-1H-indol-2-yl)-3-methyl-[1,2,4]triazolo[4,3-a]pyridine], for which the pIC50 in experiment [1] was 7.22; in experiment [2], 4.99; in experiment [3] it was 7.78.
The corresponding values for `Cc1cc2nncn2cc1-c1[nH]c2ccc(C3CCN(C4CCOCC4)CC3)cc2c1C(C)C` [Example 68, 6-(3-isopropyl-5-(1-(tetrahydro-2H-pyran-4-yl)piperidin-4-yl)-1H-indol-2-yl)-7-methyl-[1,2,4]triazolo[4,3-a] pyridine] are 7.68, 5.90 and 6.86.

A word on the pIC50: it is −log10 of the IC50, conventionally taken in molar units. Low readings indicate a large IC50, high ones a small IC50.
